Results from the supplement of paper PMC10307832.

Assays:
Test in all cases: relative viability (nuclei count vs DMSO), 5 days (fraction); higher = more cells survive
[1] = compound: Cc1ccc(NC(=O)c2ccc(CN3CCN(C)CC3)cc2)cc1Nc1nccc(-c2cccnc2)n1 [Imatinib] + CCNC(=O)c1noc(-c2cc(C(C)C)c(O)cc2O)c1-c1ccc(CN2CCOCC2)cc1 [Luminespib] (partner 0.01 µM)
Method in brief: (§1)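 The day after seeding in 1536-well plates, lung cancer cell lines were treated by pin tool with a single drug, or with a fixed anchor-drug dose together with five library-drug doses (not always all listed) in √10 steps. After 5 days, a combined fix-and-stain solution (final 0.05% Triton X-100, 1% formaldehyde, 1 ug/ml Hoechst) was added. Nuclei counted on 4× images gave relative viability as treated counts over vehicle counts, reported as the median of duplicate plates.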

[2] = compound: Cc1ccc(NC(=O)c2ccc(CN3CCN(C)CC3)cc2)cc1Nc1nccc(-c2cccnc2)n1 [Imatinib] + Nc1nc2[nH]cc(CCc3ccc(C(=O)N[C@@H](CCC(=O)O)C(=O)O)cc3)c2c(=O)[nH]1 [Pemetrexed] (partner 0.2 µM)
Method in brief: as §1

[3] = compound: Cc1ccc(NC(=O)c2ccc(CN3CCN(C)CC3)cc2)cc1Nc1nccc(-c2cccnc2)n1 [Imatinib] + CC(C)C[C@H](NC(=O)[C@H](Cc1ccccc1)NC(=O)c1cnccn1)B(O)O [Bortezomib] (partner 0.002 µM)
Method in brief: as §1

[4] = compound: Cc1ccc(NC(=O)c2ccc(CN3CCN(C)CC3)cc2)cc1Nc1nccc(-c2cccnc2)n1 [Imatinib]
Method in brief: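 Five library-drug doses, separated by factors of √10, were pinned into 1536-well plates holding lung cancer cell lines after an overnight stay at 37 °C. Cells were fixed, permeabilised and Hoechst-stained in one step after 5 days without medium change, then imaged at 4×. Viability compares treated-well with vehicle-well nuclei, counted in MetaXpress, as a median across plates. Passing plates had control CV below 25% and at least one doubling.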

| Cell Line | relative viability ([1]; first compound 0.02 µM) | relative viability ([1]; first compound 0.2 µM) | relative viability ([1]; first compound 0.6325 µM) | relative viability ([1]; first compound 2 µM) | relative viability ([2]; first compound 0.02 µM) | relative viability ([2]; first compound 0.06325 µM) | relative viability ([2]; first compound 0.2 µM) | relative viability ([2]; first compound 0.6325 µM) | relative viability ([2]; first compound 2 µM) | relative viability ([3]; first compound 0.02 µM) | relative viability ([3]; first compound 0.06325 µM) | relative viability ([3]; first compound 0.2 µM) | relative viability ([3]; first compound 0.6325 µM) | relative viability ([3]; first compound 2 µM) | relative viability ([4]; 0.02 µM) | relative viability ([4]; 0.2 µM) | relative viability ([4]; 0.6325 µM) | relative viability ([4]; 0.06325 µM) | relative viability ([4]; 2 µM) | relative viability ([1]; first compound 0.06325 µM) |
| --- | --- | --- | --- | --- | --- | --- | --- | --- | --- | --- | --- | --- | --- | --- | --- | --- | --- | --- | --- | --- |
| HARA | 0.912 | 0.684 | 0.489 | 0.997 | 0.256 | 0.235 | 0.23 | 0.286 | 0.227 | 0.952 | 1.25 | 1.5 | 1.09 | 1.1 | 1.06 | 1.07 | 0.993 |  |  |  |
| NCI-H2009 | 1.15 | 0.888 | 1.08 | 0.934 | 1.11 | 1.17 | 1.05 | 0.984 | 0.993 | 1.05 | 0.476 | 1.08 | 1 | 0.906 | 1.08 | 1.09 | 1.05 | 0.728 | 0.977 |  |
| NCI-H2087 | 0.205 | 0.155 | 0.159 | 0.25 | 0.692 |  | 0.749 | 0.58 |  | 0.868 | 0.963 | 0.689 | 0.727 | 0.604 | 1.11 | 1.13 | 1.16 |  |  |  |
| NCI-H838 | 0.33 | 0.363 | 0.275 | 0.266 | 0.249 | 0.26 | 0.251 | 0.253 | 0.247 | 1.04 | 0.823 | 0.947 | 1 | 0.886 | 1.03 |  | 1 | 1.09 | 1.01 | 0.3 |
| NCI-H1666 | 1.06 |  | 1.18 | 1.03 | 0.902 | 0.906 | 0.897 | 0.842 | 0.842 | 0.76 | 0.796 | 0.837 | 0.859 | 0.652 |  | 0.98 | 1.15 | 0.958 | 1.01 | 1.21 |
| NCI-H1563 | 0.486 | 0.545 | 0.496 | 0.471 | 0.861 | 0.678 | 0.787 | 0.772 | 0.631 | 0.885 | 0.789 | 0.889 | 0.809 | 0.86 |  | 1.11 | 0.963 | 0.912 | 0.976 | 0.537 |
| LC-2-ad | 1.23 | 0.935 | 1 | 1.07 | 0.265 |  | 0.298 | 0.251 | 0.27 | 1.16 | 0.658 | 1.18 | 0.985 | 0.929 | 1.04 | 0.986 | 0.973 | 0.715 | 1 | 0.744 |
| EKVX |  | 0.817 | 0.926 | 0.847 | 0.442 |  | 0.509 | 0.391 |  | 1.03 | 1.14 | 1.13 | 1.15 | 1.09 | 1.03 | 1 | 1.01 | 0.763 |  | 0.712 |
| NCI-H322M | 0.987 | 0.826 | 0.873 | 0.826 | 0.677 | 0.613 | 0.63 | 0.563 | 0.63 | 1.16 | 1.34 | 1.26 | 1.1 | 1.1 | 0.988 | 0.99 | 0.831 | 1.05 | 0.944 | 0.868 |
